Earlier results in patent US7323476B2, “Myriceric acid derivatives for the treatment of cancer, cardiovascular and inflammatory diseases” (SaviPu Pharmaceuticals, priority 2006, dated 2008).

What was measured:
NF-κB = conditions: qualitative statement on natural products of Fig. R
endothelin receptor = conditions: qualitative, earlier studies

Row | binding to the endothelin receptor (endothelin receptor) | Compound | inhibition of NF-κB (NF-κB)
1 | – | COc1c(O)cc(O)c2c(=O)cc(-c3ccccc3)oc12 [wogonin] | good activity
2 | – | Theaflavin-3,3′-digallate | potent inhibitor
3 | already been demonstrated | myriceric acid A [PM2011A] | –
